Experiments:
CDKL5 KO mice [1] = assay: Synapse development (SYN and PSD-95 puncta in the DG), juvenile mice; format: in vivo; conditions: juvenile CDKL5 KO mice (treated from P25, P45)
Experimental: (§1) FIGS. 22A-22B show an experimental protocol for evaluating the effect of NP-12 in juvenile and adult mice. Starting from postnatal day 25 (P25) for juvenile mice (A) or postnatal day 90 (P90) for adult mice (B), Cdkl5^+/Y and Cdkl5^−/Y male mice were treated with vehicle or NP-12, administered by subcutaneous injection every other day for 20 days. Animals were sacrificed after the last injection (on P45 and P110 for juvenile and adult mice, respectively) or were behaviorally tested. Abbreviations: +/Y: wildtype male mice; −/Y: Cdkl5 KO male mice; P, postnatal day.
Values are represented as means±SE. *p<0.05, **p<0.01, ***p<0.001 as compared to the vehicle-treated Cdkl5+/Y condition; #p<0.05; ##p<0.01, ###p<0.001 as compared to the vehicle-treated Cdkl5 −/Y condition (Duncan's test after ANOVA).

[2] = test system: Cdkl5 KO hippocampal neurons; assay: Synaptophysin (SYN) puncta in hippocampal neuronal cultures; format: cell-based, mice; conditions: 1 μM every other day, DIV7 to DIV12
Experimental: Immunostaining for cultured hippocampal neurons were performed with the following procedure. Cells were fixed in 4% PFA+4% sucrose in PBS for 20 min and washed five times in PBS. After permeabilization with PBST cells were incubated overnight at 4° C. o/n with the following antibodies: rabbit polyclonal anti-MAP2 (1:100, Millipore) and SYN (SY38) antibody (1:1000, MAB 5258, Merck Millipore). Sections were then incubated for 2 h at room temperature with a FITC-conjugated goat anti-mouse IgG (1:100; Sigma-Aldrich) and a Cy3-conjugated anti-rabbit IgG (1:100, Jackson Immunoresearch).
To develop the cultures the hippocampal neuronal cells were harvested on postnatal day 1, which was considered division 0 (DIV 0) and cultured in vitro for the remainder of the experiment. […] Results are presented as mean±SD. Data were analyzed with Duncan's test after ANOVA. A probability level of p<0.05 was considered to be statistically significant. *P, 0.05, **P<0.01, ***p<0.001 as compared to the untreated wild-type (Cdkl5+/Y) condition; #p<0.05, ##p<0.01 ###p<0.001 as compared to the untreated Cdkl5 KO (−/Y) samples.

[3] = test system: GSK3β Ser9-phosphorylation in hippocampal neurons from Cdkl5 KO mice; assay: Western blot of P-GSK3β-Ser9 in hippocampal neuronal cultures (DIV10); format: cell-based; conditions: chronic treatment 1 μm from DIV2, DIV10
Experimental: Hippocampal cultures were treated with 1 μm NP-12 starting from DIV2. […] Values are represented as means±SD. *p<0.05 as compared to the untreated Cdkl5^+/Y condition; #p<0.05; ##p<0.01 as compared to the untreated Cdkl5^−/Y samples (Duncan's test after ANOVA).
Hippocampal neurons were prepared from postnatal day 1 (P1) Cdkl5^−/Y and Cdkl5^X/Y male mice. Briefly, hippocampi were dissected from mouse brains under a dissection microscope and treated with trypsin (Sigma Aldrich) for 15 min at 37° C. and DNase (Sigma Aldrich) for 2 min at room temperature before triturating mechanically with fire-polished glass pipette to obtain a single-cell suspension. Approximately 1.2×10^5 cells were plated on coverslips coated with poly-1-lysine in 12-well plates and cultures in Neurobasal medium (Invitrogen) supplemented with B27 (Invitrogen) and glutamine (Invitrogen). Cells were maintained in vitro at 37° C. in a 5% CO2-humified incubator and fixed for immunostaining or Western Blot analysis at 10 days after plating (DIV10). 1 μM NP-12 (Sigma) was administrated on alternate days.
For Western Blot analysis hippocampal neurons at DIV10 were lysed in ice-cold RIPA lysis buffer (50 mM Tris-HCl pH 7.4, 150 mM NaCl, 1% Triton-X100, 0.5% sodium deoxycholate, 0.1% SDS) supplemented with 1 mM PMSF and 1% proteases and phosphatases inhibitor cocktail (Sigma). […]

Cdkl5^−/Y mice [4] = assay: Hippocampal connectivity: SYN and PSD-95 immunoreactivity and puncta in the molecular layer of the DG; format: in vivo; conditions: 20 mg/kg s.c. every other day from P25, P45
Experimental: After weaning, mice were housed three to five per cage and were on a 12-hour (h) light/dark cycle in a temperature-controlled environment with food and water provided ad libitum. Starting from postnatal day 25 (P25), Cdkl5^+/Y WT and Cdkl5^−/Y KO male mice were treated with vehicle (corn oil; Sigma-Aldrich) or NP-12 (20 mg/kg; Sigma-Aldrich), administered by subcutaneous injection every other day for 20 days. Animals were sacrificed 4 hours after the last injection on P45.

CDKL5 KO mice [5] = assay: Neuronal survival and maturation (DCX-positive neurons, dendritic length and branches), juvenile and adult mice; format: in vivo; conditions: juvenile CDKL5 KO mice (treated from P25, P45)
Experimental: as §1
FIGS. 25A-25B show the quantification of the number of DCX-positive postmitotic neurons in the dentate gyrus of vehicle treated and NP-12 treated Cdkl5+/Y and −/Y male mice aged P45 (A) and aged P110 (B). Data are expressed as number of cells/100 μm. Values are represented as means±SE. *p<0.05, **p<0.01, ***p<0.001 as compared to the vehicle-treated Cdkl5+/Y condition; #p<0.05; ##p<0.01, ###p<0.001 as compared to the vehicle-treated Cdkl5 −/Y condition (Duncan's test after ANOVA).
FIGS. 26A-26B show the mean total dendritic length and mean number of dendritic branches of newborn granule cells of vehicle treated and NP-12 treated Cdkl5+/Y and −/Y male mice aged P45 (A) and aged P110 (B).

Cdkl5^−/Y mice [6] = assay: Passive avoidance (PA) test; format: in vivo; conditions: at the end of treatment
Experimental: Starting from postnatal day 25 (P25), Cdkl5^+/Y WT and Cdkl5^−/Y KO male mice were treated with vehicle (corn oil; Sigma-Aldrich) or NP-12 (20 mg/kg; Sigma-Aldrich), administered by subcutaneous injection every other day for 20 days. […] For the PA test we used a tilting-floor box (47×18×26 cm) divided into two compartments by a sliding door and a control unit incorporating a shocker (Ugo Basile, Italy). This classic instrument for Pavlovian conditioning exploits the tendency in mice to escape from an illuminated area into a dark one (step-through method). On the first day mice were individually placed into the illuminated compartment. After 60 seconds of habituation period, the connecting door between the chambers opened. In general, mice step quickly through the gate and enter the dark compartment because mice prefer to be in the dark. Upon entering the dark compartment, mice received a brief foot shock (0.7 mA for 3 seconds) and were removed from the chamber after 15 seconds of latency. If the mouse remained in the light compartment for the duration of the trial (358 s), the door closed and the mouse was removed from the light compartment. […] After a 24 hour retention period, mice were placed back into the light compartment and the time it took them to re-enter the dark compartment (latency) was measured up to 358 seconds.

GSK3β = assay: Western blot of P-GSK3β-Ser9, GSK3β and β-catenin in hippocampal extracts of treated mice; conditions: 20 mg/kg s.c. every other day from P25, P45
Cdkl5^−/Y mice [7] = assay: Granule cell density, number and layer volume in the dentate gyrus; format: in vivo; conditions: 20 mg/kg s.c. every other day from P25, P45
Cdkl5^−/Y mice [8] = assay: Spine density and morphology of Golgi-stained granule cells; format: in vivo; conditions: 20 mg/kg s.c. every other day from P25, P45
Experimental: (B) Images of Golgi-stained dendritic branches of granule cells of untreated and treated Cdkl5^+/Y and Cdkl5^−/Y male mice. […] The day of birth was designed as postnatal day (P) zero (P0) and animals with 24 hours of age were considered as one-day-old animals (P1). After weaning, mice were housed three to five per cage and were on a 12-hour (h) light/dark cycle in a temperature-controlled environment with food and water provided ad libitum. […] Animals were sacrificed 4 hours after the last injection on P45. Brains were Golgi-stained using the FD Rapid Golgi Stain™ Kit (FD NeuroTechnologies, Inc., Columbia, Md., USA). […] In Golgi-stained sections, spines of granule cells were counted using a 100× oil immersion objective lens. Dendritic spine density was measured by manually counting the number of dendritic spines on dendritic segments in the inner and outer half of the molecular layer and expressed as the number of dendritic spines per 20 μm dendritic length. The dendritic spine length was measured by manually drawing a vertical line from the tip of the protrusion to the point where it met the dendritic shaft. The number of spine clusters was counted manually on dendritic segments in the inner and outer half of the molecular layer and expressed as number of spine clusters per 20 μm dendritic length. […] The number of spines belonging to the different group was counted.

GSK3β-dependent targets = assay: Western blot of GSK3β-dependent targets (β-catenin, P-CRMP2 Thr-514, P-CREB Ser-133) in hippocampus, juvenile and adult mice; format: in vivo; conditions: juvenile CDKL5 KO mice (treated from P25, P45)
Source text: Data are expressed as percentage of vehicle treated Cdkl5+/Y mice of the same age. Values are represented as means±SE. *p<0.05, **p<0.01, ***p<0.001 as compared to the vehicle-treated Cdkl5 +/Y condition; #p<0.05; ##p<0.01, ###p<0.001 as compared to the vehicle-treated Cdkl5 −/Y condition (Duncan's test after ANOVA).

Cdkl5^−/Y mice [9] = assay: Neuronal survival in the dentate gyrus (cleaved caspase-3, DCX immunohistochemistry); format: in vivo; conditions: 20 mg/kg s.c. every other day from P25, P45
Source text: (B,C) Examples of sections processed for DCX immunostaining from the dentate gyrus (DG) of untreated and treated Cdkl5^+/Y and Cdkl5^−/Y male mice. (C). […] Scale bar=30 μm; type 2b/3 cells and immature neurons were counted separately. (B) Number of DCX-positive type 2b/3 precursor cells and DCX-positive immature neurons in the DG of mice of untreated (+/Y n=3, −/Y n=3) and treated (+/Y n=3, −/Y n=3) Cdkl5 mice. Values in A represent totals for one DG (mean±SD), data in B are expressed as number of cells/100 μm. *p<0.05; **p<0.01 as compared to the untreated Cdkl5^+/Y condition; ##p<0.01; ###p<0.001 as compared to the untreated Cdkl5^−/Y samples (Duncan's test after ANOVA). Abbreviations: GR, granular layer; SGZ, subgranular zone.
The day of birth was designed as postnatal day (P) zero (P0) and animals with 24 hours of age were considered as one-day-old animals (P1). After weaning, mice were housed three to five per cage and were on a 12-hour (h) light/dark cycle in a temperature-controlled environment with food and water provided ad libitum. […]
One out of 6 sections from the hippocampal formation were used for immunohistochemistry for cleaved caspase-3 (1:200, anti-cleaved caspase-3 rabbit polyclonal Ab, Cell Signaling Technology), doublecortin (1:100, anti-DCX goat polyclonal Ab, Santa Cruz Biotechnology), synaptophysin (1:1000, anti-SYN (SY38) mouse monoclonal Ab, MAB 5258, Merck Millipore) and PSD-95 (1:1000, anti-PSD-95 rabbit polyclonal Ab, Abcam) or double fluorescence immunohistochemistry for synaptophysin, and PSD-95. […]
The total number of positive cells in the DG (cleaved caspase-3, DCX) was estimated by multiplying the total number counted in the series of sampled sections by the inverse of the section sampling fraction (ssf=⅙). The total number of cells of each phenotype was estimated by multiplying the number counted in the series of sections by the inverse of the section sampling fraction (ssf=⅙).

CDKL5 KO mice [10] = assay: Hippocampus-dependent learning and memory (Morris water maze, passive avoidance), juvenile and adult mice; format: in vivo; conditions: juvenile CDKL5 KO mice (treated from P25, P45)
Experimental: Starting from postnatal day 25 (P25) for juvenile mice (A) or postnatal day 90 (P90) for adult mice (B), Cdkl5^+/Y and Cdkl5^−/Y male mice were treated with vehicle or NP-12, administered by subcutaneous injection every other day for 20 days. Animals were sacrificed after the last injection (on P45 and P110 for juvenile and adult mice, respectively) or were behaviorally tested. […] Spatial learning and memory (probe test) assessed with the Morris water maze in vehicle treated and NP-12 treated Cdkl5+/Y and −/Y male mice aged P45 (A) and aged P110 (B). Passive avoidance test (PA) on vehicle treated and NP-12 treated Cdkl5+/Y and −/Y male mice aged P45 (C). Graphs show the latency time to enter the dark compartment on the first day and on the second day of the behavioral procedure. Values are represented as means±SE. *p<0.05, **p<0.01, ***p<0.001 as compared to the vehicle-treated Cdkl5+/Y condition; #p<0.05; ##p<0.01, ###p<0.001 as compared to the vehicle-treated Cdkl5−/Y condition (Duncan's test after ANOVA).

[11] = test system: hippocampal neurons from Cdkl5 KO mice; assay: Polarization and morphological analysis of MAP2-stained hippocampal neurons; format: cell-based; conditions: Cdkl5 KO hippocampal cultures; 1 μM, DIV10
Source text: (C-D) Graphs showing the percentage of polarized neurons (C) and the quantification of the length of the longest axon and dendrite (D) in treated and untreated in hippocampal cultures as in A. (E) Representative images of MAP2-stained hippocampal neurons as in A. Data are expressed as fold difference in comparison to hippocampal neurons from untreated Cdkl5^+/Y mice. Values are represented as means±SD. *p<0.05 as compared to the untreated Cdkl5^+/Y condition; #p<0.05; ##p<0.01 as compared to the untreated Cdkl5^−/Y samples (Duncan's test after ANOVA).
Hippocampal neurons were prepared from postnatal day 1 (P1) Cdkl5^−/Y and Cdkl5^X/Y male mice. […]
To define the degree of polarization of neuronal dendrites, we followed the method described by Horton et al. (FIG. 3) (Horton et al. 2006. Brain Cell. Biol. 35:29-38). Briefly, the measured lengths of dendrites (Lm) in each neuron (including the primary dendrite/axon with all its branches) were ranked highest to lowest. […]
The morphological analysis of hippocampal neurons was focused on two parameters: length of the longest dendrite (D1) and total dendritic length. To achieve this aim, dendritic length of MAP2-positive neurons were measured and quantified by tracing along each neuronal projection using the image analysis system Image Pro Plus (Media Cybernetics, Silver Spring, Md. 20910, USA). […]

Cdkl5^−/Y mice [12] = assay: Dendritic development of granule cells (DCX and Golgi staining); format: in vivo; conditions: 20 mg/kg s.c. every other day from P25, P45
Experimental: After weaning, mice were housed three to five per cage and were on a 12-hour (h) light/dark cycle in a temperature-controlled environment with food and water provided ad libitum. […] Animals were sacrificed 4 hours after the last injection on P45.

CDKL5 KO mice [13] = conditions: cited from earlier work

O=c1sn(-c2cccc3ccccc23)c(=O)n1Cc1ccccc1 [NP-12, tideglusib]
synapse development (SYN and PSD-95 puncta) (CDKL5 KO mice [1]): restores synapse development in juvenile CDKL5 KO mice
number of synaptophysin (SYN) puncta [2]: completely restore
GSK3β Ser9-phosphorylation [3]: completely restores GSK3β Ser9-phosphorylation
density of PSD-95 puncta in the molecular layer of the DG (Cdkl5^−/Y mice [4]): completely restored
density of SYN puncta in the molecular layer of the DG (Cdkl5^−/Y mice [4]): completely restored
optical density of PSD-95 immunoreactivity in the molecular layer of the DG (Cdkl5^−/Y mice [4]): fully rescued
optical density of SYN immunoreactivity in the molecular layer of the DG (Cdkl5^−/Y mice [4]): fully rescued
neuronal survival and maturation (CDKL5 KO mice [5]): restores neuronal survival and maturation in juvenile
latency time to enter the dark compartment, second day (test) (Cdkl5^−/Y mice [6]; Cdkl5^−/Y mice, 24 hours after shock): underwent an increase and there was no significant difference in comparison to untreated Cdkl5^+/Y mice
latency time to enter the dark compartment, first day (Cdkl5^−/Y mice [6]; all groups): all groups showed similar step-through latencies
total GSK3β levels in hippocampus (GSK3β): no effect
Ser9-phosphorylated GSK3β levels in hippocampus (GSK3β; Cdkl5^−/Y male mice): increased Ser9-phosphorylated GSK3β levels in Cdkl5^−/Y mice that became even higher to those of the untreated Cdkl5^+/Y counterparts
β-catenin levels in hippocampus (GSK3β; Cdkl5^−/Y male mice): complete recovery of β-catenin levels
granule cell density in the dentate gyrus (Cdkl5^−/Y mice [7]): fully restored
total granule cell number in the dentate gyrus (Cdkl5^−/Y mice [7]): fully restored
volume of the granule cell layer (Cdkl5^−/Y mice [7]): without affecting the volume of the granule cell layer
dendritic spine density of granule cells (Cdkl5^−/Y mice [8]): no effect on spine density
spine shape morphology (percentage of immature and mature spines) (Cdkl5^−/Y mice [8]; Cdkl5 KO mice): completely restored
GSK3β-dependent targets (β-catenin, P-CRMP2 Thr-514, P-CREB Ser-133) (GSK3β-dependent targets): restores GSK3β-dependent targets in juvenile
cell death: cleaved caspase-3 positive cells in the dentate gyrus (Cdkl5^−/Y mice [9]; Cdkl5 KO male mice): completely restored
survival rate of the postmitotic granule cells (Cdkl5^−/Y mice [9]; Cdkl5^−/Y mice): restores the survival rate of the postmitotic granule cells
number of DCX-positive immature neurons in the dentate gyrus (Cdkl5^−/Y mice [9]; treated mice vs untreated Cdkl5^+/Y): underwent an increase in the number of DCX-positive neurons, that became similar to that of untreated Cdkl5^+/Y littermates
hippocampus-dependent behavior defects (learning and memory) (CDKL5 KO mice [10]): corrects hippocampus-dependent behavior defects in juvenile
axon and dendrite maturation (length of the longest axon and dendrite) [11]: had positive effects on correct axon and dendrite maturation
percentage of polarized neurons [11]: efficiently ameliorated the percentage of polarized neurons
dendritic length of newborn (DCX-positive) granule cells (Cdkl5^−/Y mice [12]): increase in both parameters that became similar or even greater than those of untreated Cdkl5^+/Y mice
dendritic length of older Golgi-stained granule cells (Cdkl5^−/Y mice [12]): completely rescued
number of dendritic branches of newborn (DCX-positive) granule cells (Cdkl5^−/Y mice [12]): increase in both parameters that became similar or even greater than those of untreated Cdkl5^+/Y mice
number of dendritic segments of older Golgi-stained granule cells (Cdkl5^−/Y mice [12]): completely rescued

Cn1cc(C2=C(c3ccc(Cl)cc3Cl)C(=O)NC2=O)c2ccccc21 [SB216763]
hippocampal development (CDKL5 KO mice [13]): restore hippocampal development by restoring dendritic development, spine morphology and distribution, survival of newborn granule cells, and connectivity

Reference: patent publication US10751329B2, “Treatment of CDKL5 disorders with GSK3β inhibitor tideglusib” (priority 2016, dated 2020)
